In publication PMC6151459, “Targeting PDE10A GAF Domain with Small Molecules: A Way for Allosteric Modulation with Anti-Inflammatory Effects” (Molecules : A Journal of Synthetic Chemistry and Natural …, 2017) one finds IC50, inhibition and nitrite production data, which are given here for 17 compounds.

SMILES strings stand for the structures.

Test [1] has as its target T1, human recombinant PDE10A2 (Homo sapiens, UniProt Q9Y233).
T1 construct: These compounds were tested against recombinant human full-length isoenzyme PDE10A; purchased Calbiochem 524739
The test is described as follows: Radiometric phosphodiesterase inhibition assay (SPA, [3H]cAMP). In kind it is biochemical. The following applies: for IC50: recombinant human full-length PDE10A; for inhibition at 10 µM: fixed compound concentration of 10 µM, read-out: percentage of inhibition of PDE10A. Here is the method:
The methodology used for measuring human recombinant PDE10A2 activity was based in a Scintillation Proximity Assay (SPA) from Perkin Elmer (TRKQ7090).
After the incubation time, 50 µL of a solution of SPA-beads (approximately 1 mg per well) were added to each well and the plate was shaken for 1 h at room temperature. Finally, beads were settled for 30 min and radioactivity was detected in a Microbeta Trilux reader (Perkin Elmer, Shelton, CT, USA).
IC50 values were calculated by non-linear regression fitting using the GraphPad Prism. Data (radioactivity vs. log concentration) was fitted to a sigmoidal dose-response equation: Y = Bottom + (Top-Bottom)/(1 + 10^[…]), where Bottom and Top were the minimum and maximal inhibition for PDE, respectively, IC50 was the concentration of the compound that inhibited the PDE activity in a 50%, and n was the slope of the concentration-response curve.

Another test has as its system Raw 264.7 cells. The test is described as follows: Inhibition of nitrite production in LPS-stimulated murine macrophages (Griess reaction). In kind it is cell-based. To be noted: inhibitors 10 μM, 1 h pretreatment, LPS 10 μg mL−1, 24 h, versus LPS-treated cells. The source says:
Finally, to explore the anti-inflammatory potential of the new allosteric PDE10A inhibitors here described, a cell-based assay was used. We have determined differences in nitrite production of Raw 264.7 cells after they were damaged with bacterial lipopolysaccharide (LPS) and treated with selected inhibitors. First, the effect of the compounds on cell viability was examined at various concentrations showing […] significant cytotoxic effect in the present experiments (data not shown).
Figure 4 Raw 264.7 cells were incubated for 24 h with lipopolysaccharide (LPS; 10 μg mL^−1) in the absence or presence of various Phosphodiesterase (PDE) inhibitors (10 μM), and the production of nitrite was evaluated by the Griess reaction. Cells were pretreated with inhibitors for 1 h before lipopolysaccharide (LPS) stimulation. Values represent the mean ± SD from two independent experiments. *: p < 0.05; **: p < 0.01 versus LPS-treated cells.
The content of nitrite, one of the end products of NO oxidation, was monitored by a procedure based on the diazotidation of nitrite by sulfanilic acid (Griess reaction). […] The absorbance (520 nm) of the mixture was measured on a microplate reader. The concentration of nitrite was calculated with the linear equation derived from the standard curve generated by known concentrations of sodium nitrite.
(In general: The Griess reaction detects nitrite, a stable product of nitric oxide.)

Another test deals with PDE10A. The arrangement: method as in PMID 21705115. The following applies: reference compound; cited from earlier work.

T1 sequence (Q9Y233 267-1055): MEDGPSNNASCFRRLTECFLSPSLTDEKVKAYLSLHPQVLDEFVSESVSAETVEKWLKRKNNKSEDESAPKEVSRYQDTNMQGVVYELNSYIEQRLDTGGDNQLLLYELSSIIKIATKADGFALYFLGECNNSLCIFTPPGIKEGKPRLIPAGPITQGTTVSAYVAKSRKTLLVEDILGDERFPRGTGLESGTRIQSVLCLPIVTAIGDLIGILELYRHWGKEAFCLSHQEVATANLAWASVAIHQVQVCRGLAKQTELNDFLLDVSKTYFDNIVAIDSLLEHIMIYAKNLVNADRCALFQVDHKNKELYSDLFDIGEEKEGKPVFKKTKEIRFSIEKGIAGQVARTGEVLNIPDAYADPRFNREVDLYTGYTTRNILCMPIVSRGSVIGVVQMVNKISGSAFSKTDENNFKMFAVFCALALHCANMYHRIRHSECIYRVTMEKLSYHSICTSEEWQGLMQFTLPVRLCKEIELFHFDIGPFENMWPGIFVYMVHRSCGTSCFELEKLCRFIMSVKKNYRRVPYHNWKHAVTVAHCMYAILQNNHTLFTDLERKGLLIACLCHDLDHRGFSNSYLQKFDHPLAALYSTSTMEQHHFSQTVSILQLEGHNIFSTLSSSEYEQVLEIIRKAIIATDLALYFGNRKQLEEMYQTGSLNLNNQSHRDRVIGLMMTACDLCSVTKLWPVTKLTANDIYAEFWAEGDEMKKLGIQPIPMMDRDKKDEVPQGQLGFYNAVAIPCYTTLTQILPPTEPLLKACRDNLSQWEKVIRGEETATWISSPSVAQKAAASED

One may read the IC50 as the midpoint of a concentration-inhibition curve. With `CC(=O)C1=C(c2ccc(C#N)cc2)C(=O)NC1=O` [Compound 1], in test [1], the IC50 came out at 4.6 µM.
By inhibition is commonly meant the drop in the measured response relative to a control, in per cent. Turning to `O=C(Cc1ccccc1)Sc1ncnc2[nH]cnc12` [Compound 2], in test [1], the inhibition at 10 µM turned out to be 40%.
Same read-out and setting: next, `O=C(O)COC(=O)CNC(=O)c1ccccc1` [Compound 3]: 7%.
With `CC(=O)C1=C(c2c[nH]c3ccccc23)C(=O)NC1=O` [Compound 4], the IC50 in test [1] was 10.2 µM. For the same compound, the nitrite production result with Raw 264.7 cells is given as “significantly decreased”.
In the same order, the values of `COc1ccc(-c2n/c(=N/Cc3cccnc3)sn2-c2ccccc2)cc1` [Compound 5] are 1.8 µM and “significantly decreased”.
On to `CC(=O)C1=C(c2c[nH]c3ncccc23)C(=O)NC1=O` [Compound 7], for which the IC50 in test [1] was found to be 8.2 µM.
For `Cc1ccc(-n2nc(C(C)(C)C)cc2N)cc1` [Compound 9], the inhibition at 10 µM in test [1] came to 3%.
On the same count and under the same terms, next, `CC(=O)NNC(=O)c1c(O)n(C)c2ccccc2c1=O` [Compound 10]: 2%; `O=C(Cc1cccc(Cl)c1)Nc1nc2ccccc2s1` [Compound 11]: 44%.
As to `O=S1(=O)N=C(O)c2cc(-c3ccccc3)sc2N1` [Compound 12], the inhibition at 10 µM in test [1] turned out to be 3%.
For `O=Cc1nc(-c2ccc(Cl)cc2)ns1` [Compound 13], the inhibition at 10 µM in test [1] came out at 15%.
Same read-out and setting: the same measure for `CC(=O)C1=C(c2c(C)[nH]c3ccccc23)C(=O)NC1=O` [Compound 14]: 24%.
For the compound `CC(=O)C1=C(c2cn(C)c3ncccc23)C(=O)NC1=O` [Compound 15], the IC50 in test [1] was 6.5 µM.
Still for that read-out and setting: next, `O=C(CBr)C1=C(c2c[nH]c3ccccc23)C(=O)NC1=O` [Compound 16]: 2.4 µM; `CC(=O)C1=C(c2cn(C)c3ccccc23)C(=O)NC1=O` [Compound 17]: 8.2 µM; `Cn1cc(C2=C(C(=O)CBr)C(=O)NC2=O)c2ccccc21` [Compound 18]: 2.9 µM.
Take `COc1ccc(Cc2nccc3cc(OC)c(OC)cc23)cc1OC` [Papaverine]: the IC50 with PDE10A is 19 nM.
